Assay results taken from patent publication US9539315B2, “Methods, agents and peptides for inhibiting matrix metalloproteinase-2 signaling” (New York University, priority 2011, dated 2017).
“Also recorded” adds a separate entry of the source.

What was measured:
[1] = test system: OX40L; test: OX40L expression on DCs (staining); assay type: cell-based, human; settings: DCs exposed for 2 days, stained for OX40L
Description: (§1) A) DCs were exposed to MMP-2 […] or zymosan […], a known activator of NF-κB that acts via TLR2, for the indicated time. Cytosolic and nuclear fractions were isolated and p50 contents were measured by ELISA. […] C) OX40L over-expression on DCs induced by MMP-2 is inhibited by an inhibitor of NEMO, the NEMO binding domain (NBD) peptide, but not by the corresponding negative control, a NBD mutant.
(§2) A) DCs were exposed to various TLR agonists for 2 days before cells were stained for OX40L. […] B) TLR2-transfected and engineered HEK cells were incubated with MMP-2 (5 mg/ml) or various controls. All conditions were also tested in the presence of a blocking antibody for TLR2. TNFα was used to activate NF-κB in a TLR-independent manner. Twenty hours later, NF-κB activation was measured.
Antibody to OX40L (11C3.1) was from Biolegend. Blocking antibodies to TLR-2 and TLR-6 were from Invivogen. Antibodies to GATA-3, IL-4 (8D4-8), IL-5 (JES1-39D10), IL-13 (JES10-5A2), TNFα (MAb11), IFNγ (25723.11), perforin (δG9), GranzymeB (GB11), CD40 (5C3), CD80 (L307.4), CD83 (HB15e), CD86 (IT2.2), HLA-DR (TU36), fluorescein isothiocyanate-conjugated antibodies to CD45RA (HI100) and CD45RO (UCHL1), and antibody to CD4 (RPA-T4) were purchased from BD Biosciences Pharmingen. Alexa fluor 488-conjugated antibody to IL-17 (eBio64DEC17), phycoerythrine-conjugated antibody to T-bet (4B10).
(§3) PBMCs were purified from healthy-(HD) or cord blood- (CB) donors and plated at 40×10^6 cells/10 mL/dish in complete IMDM with 5% PHS. Cells were allowed to adhere for 2 h at 37° C. Non-adherent cells were removed. The monocyte-enriched fraction was supplemented with 100 UI/mL rhGMCSF and 300 UI/mL rhIL-4 (R&D Systems) on days 0, 2 and 4. Immature DCs were harvested on day 5 and matured using poly(I:C) at 5 μg/mL/10^6 DCs (Amersham). Secretion of IL-12p70, TNFα, IL-1β, IL-6, IL-8 and IL-10 was assessed on both immature and mature DCs using the Human Inflammatory Cytokine Cytometric Bead Array (BD Pharmingen).

[2] = test system: NF-κB pathway; test: p50 nuclear translocation / NF-κB activation in DCs (ELISA of cytosolic and nuclear fractions); assay type: cell-based, human; settings: DCs exposed to MMP-2 (5 μm/ml) or zymosan (10 μm/ml); p50 by ELISA
Description: as §1, §3
Activation of T cell clones (10,000 cells/100 μL/well), polyclonal T cell populations (100,000 cells/100 μL/well), and DCs (50,000 cells/100 μL/well) can be determined by ELISA. IFNγ (BioSource), TNFα (BioSource), IL-4 (BioSource), IFNβ (VeriKine; PBL interferon source) and MCP-3 (DuoSet; R&D Systems) contents in supernatants were measured according to the manufacturer's instructions. p50 was measured in cytosolic and nuclear fractions (fractions separated using the nuclear separation kit from Active motif) by ELISA (Active motif).

[3] = target: T1, human TLR-2 (Homo sapiens, UniProt O60603); test: HEK-Blue-hTLR2 NF-κB SEAP reporter assay; assay type: cell-based; settings: MMP-2 5 mg/ml; twenty hours; with/without TLR2 blocking antibody
T1 construct: host or cells: HEK293 (HEK-Blue-hTLR2 cells)
Description: as §2
TLR2-transfected and engineered HEK cells were incubated with MMP-2 (5 mg/ml), TLR2 agonists, recombinant PEX and 3 pools of overlapping 20-mers covering MMP-2. OLP1: mix of 22 overlapping peptides covering MMP-2 from amino-acid 1 to 220; OLP2: mix of 22 overlapping peptides covering MMP-2 from amino-acid 210 to 440; OLP3: mix of 22 overlapping peptides covering MMP-2 from amino-acid 450 to 660. Twenty hours later, NF-κB activation was measured. Neither PEX nor the peptides triggered NF-κB signaling.
TLR-2-transfected (stably) HEK-Blue™ Cells represent a very efficient high throughput reagent for screening due to an easy read-out. […] Levels of SEAP can be readily determined with QUANTI-Blue™, a detection medium that turns purple/blue in the presence of alkaline phosphatase. […] Inhibition of NF-κB activation by any agents/molecules can be assessed and confirmed in DCs (which endogenously express TLR2 or are engineered to express exogenous TLR2) in order to corroborate the initial screening results in a native or more natural context. […] TLR-2-expressing cells, such as those described herein, can be incubated with agents/molecules and molecular interactions assessed using methods, such as, e.g., co-immunoprecipitation of MMP-2 and TLR-2 from the cell lysates. […] Additional methods can be used to evaluate if MMP-2 and TLR-2 interact directly, including other affinity-based methods (e.g., affinity chromatography or panning), competitive inhibition assays, and various visualization techniques, such as fluorescence resonance energy transfer (FRET) and others which are known in the art. […]

[4] = test system: bone-marrow-derived DCs; test: Activation of bone-marrow-derived DCs from wild-type and TLR-deficient mice; assay type: cell-based, C57/BL6 mice
Description: Bone-marrow-derived DCs from wild-type, TLR2^−/−, TLR6^−/− or MyD88^−/− C57/BL6 mice (3 mice pooled/condition) were incubated overnight with 5 μg/ml mMMP-2 or mMMP-9 as well as TLR agonists for controls. TNFα (A) and IL-6 (B) were measured by cytometric bead array analysis. Results are represented as a mean of triplicates±s.d. Two-tailed Student's t-tests were used for specific pairwise comparisons between conditions. p values≦0.05 (*) were considered statistically significant. C) Murine OX40L expression was assessed 2 days later by immunostaining.
Bone-marrow-derived DCs (BM-DCs) were generated and cultured with murine MMP-2 or various controls. […] On the other hand, TLR2^−/− and MyD88^−/− BM-DCs were not activated by MMP-2 (n=3; p<0.02 compared to wild-type mice) (FIG. 9A-C). […] Therefore, MMP-2 induces DCs to produce inflammatory cytokines and to up-regulate OX40L in a TLR2/MyD88-dependent manner.

T1 sequence (O60603 21-784): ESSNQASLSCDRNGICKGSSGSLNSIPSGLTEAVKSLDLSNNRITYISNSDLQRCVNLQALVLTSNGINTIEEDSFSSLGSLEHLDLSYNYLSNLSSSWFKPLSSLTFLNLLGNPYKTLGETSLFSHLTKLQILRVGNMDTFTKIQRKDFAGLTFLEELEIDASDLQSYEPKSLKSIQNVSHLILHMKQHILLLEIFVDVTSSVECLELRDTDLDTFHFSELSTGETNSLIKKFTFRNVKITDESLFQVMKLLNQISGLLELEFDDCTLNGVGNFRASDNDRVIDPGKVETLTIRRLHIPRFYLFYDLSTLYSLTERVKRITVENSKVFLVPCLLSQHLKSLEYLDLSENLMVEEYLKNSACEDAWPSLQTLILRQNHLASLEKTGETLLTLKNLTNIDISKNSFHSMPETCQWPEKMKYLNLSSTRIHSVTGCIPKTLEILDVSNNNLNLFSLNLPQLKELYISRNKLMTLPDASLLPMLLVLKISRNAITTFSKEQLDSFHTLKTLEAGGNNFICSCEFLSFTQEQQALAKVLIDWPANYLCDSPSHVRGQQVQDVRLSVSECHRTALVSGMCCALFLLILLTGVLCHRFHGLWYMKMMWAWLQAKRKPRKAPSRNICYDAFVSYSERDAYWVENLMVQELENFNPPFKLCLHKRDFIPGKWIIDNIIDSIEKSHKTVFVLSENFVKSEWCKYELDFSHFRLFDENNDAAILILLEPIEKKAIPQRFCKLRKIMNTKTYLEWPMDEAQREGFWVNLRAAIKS

zymosan [reference compound] was tested, and the “OX40L expression on DCs” value [1] was “induce OX40L on DCs”, the “p50 translocation in the nucleus” value [2] was “induce p50 translocation in the nucleus after 30 min” and the “NF-κB activation in TLR2-transfected HEK cells” value [3] was “activate NF-κB in a TLR2-dependent manner”.

“murine MMP-2: murine MMP-2 protein, active or inactive” was tested, and the “activation of bone-marrow-derived DCs” value ([4]; FIG. 9 summary) was “activates bone-marrow-derived DCs in a TLR2- and MyD88-dependent manner”, the “activation of TLR2−/− and MyD88−/− BM-DCs” value ([4]; TLR2−/− and MyD88−/− BM-DCs, n=3) was “not activated” and the “inflammatory cytokine secretion (TNFα, IL-6) by BM-DCs” value ([4]; wild-type and TLR6−/− BM-DCs, 5 μg/ml overnight, active or inactive) was “secreted inflammatory cytokines”. The “OX40L up-regulation on BM-DCs” value ([4]; wild-type and TLR6−/− BM-DCs, 2 days) was “up-regulated OX40L”.

B1: PEX: last third of MMP-2, amino acids 445-635 of SEQ ID NO: 1; recombinant (protein, listed as Homo sapiens)
chain: YGASPDIDLGTGPTPTLGPVTPEICKQDIVFDGIAQIRGEIFFFKDRFIWRTVTPRDKPMGPLLVATFWPELPEKIDAVYEAPQEEKAVFFAGNEYWIYSASTLERGYPKPLTSLGLPPDVQRVDAAFNWSKNKKTYIFAGDKFWRYNEVKKKMDPGFPKLIADAWNAIPDNLDAVVDLQGGGHSYFFKGA
B1 was tested, and the “NF-κB activation in TLR2-transfected HEK cells” value [3] was “did not trigger TLR-2 activation; also recorded: do not trigger TLR2”.
